Test results from patent US20180059115A1, “METHODS FOR MONITORING POLYMORPHONUCLEAR MYELOID DERIVED SUPPRESSOR CELLS, AND COMPOSITIONS AND METHODS OF TREATMENT OF CANCER” (The Wistar Institute of Anatomy and Biology, priority 2016, published 2018).
“Also recorded” adds a separate entry of the source.

Tests used:
hepatic L02 cells = conditions: cited from earlier work
T lymphocytes [1] = experiment: Three-way allogeneic MLR suppression assay (thymidine incorporation); type: cell-based, human; conditions: 1 μM NAC, 1000 U/ml catalase, 20 μM Nor-NOHA, 1:2 PMN:T cell ratio
Excerpt: Whole blood was enriched for PMNs using MACSxpress® Neutrophil Isolation Kit (Miltenyi) following the protocol provided by the manufacturer. Cells were then labeled with anti-Lox1-PE mAb (Biolegend) and then separated using anti-PE beads and MACS column (Miltenyi). For the three-way allogenic MLR suppression assay, T lymphocytes from one healthy donor were purified using the Human CD3+ T Cell Enrichment Column Kit (R&D Systems) and used as responder cells. Dendritic cells were generated from adherent monocytes from another healthy donor in the presence of 25 ng/mL GM-CSF and 25 ng/mL IL-4 (Peprotech) for 6 days and used as stimulator cells. Responder and stimulator cells were then mixed at a 10:1 ratio followed by the addition of Lox1+ or Lox1− PMNs. T lymphocyte proliferation was assessed after 5 days of culture by thymidine incorporation.
In some experiments, 1 μM N-acetyl cysteine (NAC; Sigma) or 20 μM of Nω-hydroxy-norarginine (nor-NOHA; Cayman Chemical) was added to the culture media to block ROS or agrinase I activity, respectively. T lymphocyte proliferation was assessed after 5 days of culture by thymidine incorporation.

[2] = system: PMN isolated from healthy donors; experiment: LOX-1 expression in PMN treated with cytokines or tumor-cell conditioned medium; type: cell-based, human; conditions: healthy donor PMN, 24 hr culture, GM-CSF added; TCM 20% v/v
Method: FIGS. 11A and 11B show the mechanism regulating LOX-1 expression on PMN-MDSC, specifically the percentage of LOX-1+ PMN (FIG. 11A) and expression of LOX-1 (FIG. 11B) in PMN isolated from 4 healthy donors and treated with indicated cytokines. Range of concentrations based on reported data were tested and only one for each cytokine is shown. Conditioned medium from PCI30 tumor cells (TCM) was used at 20% v/v concentration. Mean and SD are shown.
What could induce LOX-1 up-regulation in PMN-MDSC? Based on the fact that in endothelial cells LOX-1 can be induced by pro-inflammatory cytokines^35, we tested the effect of several cytokines as well as tumor-cell conditioned medium (TCM) on LOX-1 expression in PMN isolated from healthy donors. None of the tested pro-inflammatory cytokines (IL-1β, TNFα, IL-6) or TCM induced upregulation of LOX-1 in PMN after 24 hr culture (GM-CSF was added to protect PMN viability) (FIGS. 11A and 11B).

[3] = system: PMN isolated from healthy donors; experiment: In vitro PMN LOX-1 induction by ER stress inducers, LOX-1 by flow cytometry; type: cell-based, human; conditions: overnight with GM-CSF, THG 1 μM, DTT 1 mM
Method: (§1) PMNs from healthy donors were isolated on a Histopaque gradient. 5×10^5 cells/ml were cultured for 12 hrs with 10 ng/ml of GM-CSF in the presence of dithiothreitol (DTT) (0.5, 1, 2 mM; Sigma), tunicamycin (0.5, 1, and 2 μg/ml; Sigma-Aldrich), or thapsigargin (0.5, 1, and 2 μM; Sigma). In some instances, 20 μM of the XBP-1 inhibitor BIO9 was added 3 hours prior to culture. Cells were then stained for flow cytometry or used for functional assays as described above.
Flow cytometry data were acquired using a BD LSR II flow cytometer and analyzed using FlowJo software (Tree Star) Immunofluorescent microscopy: Following deparaffinization and rehydration, heat induced antigen retrieval was performed using Tris-EDTA buffer pH 9. Followed by blocking with 5% BSA, tissues were stained with Lox1 antibody (Abcam; Cat no ab126538) and CD15 antibody (BD biosciences; Cat no 555400) at 1:200 dilution in 5% BSA each for 1 hour at room temperature. The following secondary antibodies were used Alexa Fluor anti-rabbit A647 (1:200 dilution in 5% BSA, Life technologies) for Lox1 and anti-mouse A514 (1:400 dilution in 5% BSA, Life technologies) for CD15 staining. CD15 staining was pseudo colored red and Lox1 staining was pseudo colored green. Nucleus was stained using DAPI (1:5000 dilution in PBS, Life technologies). Images were obtained using Leica TCS SP5 Confocal microscope. […]

T lymphocytes [4] = experiment: CD3/CD28 induced T-cell proliferation suppression assay (3H-thymidine uptake); type: cell-based, human; conditions: healthy donor PMN treated overnight with 1 μM THG, washed
Method: Concurrently, T-lymphocytes were isolated from the PBMC of the same patient as LOX-1+ PMN using human CD3+ T Cell Enrichment Column Kit. PMNs were plated at different ratios with […] T lymphocytes in a 96-well plate coated with 10 μg/ml anti-CD3 (clone UCHT1; BD Biosciences) followed by the addition of 1 μg/ml of soluble anti-CD28 (clone CD28.2; BD Biosciences). T lymphocyte proliferation was assessed after 3 days of culture by thymidine incorporation.
as §1

Compound	effect on LOX-expression in PMN / immune suppressive activity of LOX-1+ PMN-MDSC (T lymphocytes [1])	upregulation of LOX-1 in PMN [2]	also measured
tunicamycin	–	–	LOX-1 expression under ER stress (hepatic L02 cells): caused down-regulation of LOX-1
N=C(NO)NCC[C@H](N)C(=O)O [Nor-NOHA, Nω-hydroxy-norarginine]	substantially decreased LOX-expression	–	–
catalase	substantially decreased LOX-expression	–	–
TNFα	–	None	–
IL-6: pro-inflammatory cytokine	–	None	–
O[C@H](CS)[C@H](O)CS (racemic) [DTT, dithiothreitol]	–	–	LOX-1 expression in PMN [3]: dramatic up-regulation of LOX-1 expression
CC(=O)N[C@@H](CS)C(=O)O [NAC, N-acetylcysteine]	substantially decreased LOX-expression	–	–
IL-1β: pro-inflammatory cytokine	–	None	–
C/C=C(/C)C(=O)O[C@H]1C(C)=C2[C@H]([C@@H]1OC(=O)CCCCCCC)[C@@](C)(OC(C)=O)C[C@H](OC(=O)CCC)[C@@]1(O)[C@H]2OC(=O)[C@@]1(C)O [THG, thapsigargin]	–	–	immune suppressive activity of treated PMN (T-cell proliferation) (T lymphocytes [4]): caused acquisition of potent immune suppressive activity; also recorded: converted PMN to PMN-MDSC; LOX-1 expression in PMN [3]: dramatic up-regulation of LOX-1 expression
